Assay results from PubChem BioAssay AID2060602 (Molecular Pharmacology Branch, DTP, NCI, 2025).

Test system: 648629-189-R-J1-PDC complex spheroids viability
Experiment: Anticancer human tumor 648629-189-R-J1-PDC patient-derived bladder carcinoma cell line growth inhibition [CLK]
Conditions: for IC50: curve of first compound; for viability, T/C: stronger effect = lower value
Outline: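 Multi-cell-type spheroids combined patient-derived tumor cells with HUVEC endothelial cells and human mesenchymal stem cells. Paired agents were dosed in half-log steps down from about clinical Cmax, or from 10 microM where Cmax was unknown.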

[1] = second compound 0.0316 µM, first compound 0.0316 µM
[2] = second compound 0.0316 µM, first compound 0.1 µM
[3] = second compound 0.0316 µM, first compound 0.316 µM
[4] = second compound 0.0316 µM, first compound 1 µM
[5] = second compound 0.0316 µM, first compound 3.16 µM
[6] = second compound 0.0316 µM, first compound 10 µM
[7] = second compound 0.1 µM, first compound 0.0316 µM
[8] = second compound 0.1 µM, first compound 0.1 µM
[9] = second compound 0.1 µM, first compound 0.316 µM
[10] = second compound 0.1 µM, first compound 1 µM
[11] = second compound 0.1 µM, first compound 3.16 µM
[12] = second compound 0.1 µM, first compound 10 µM
[13] = second compound 0.316 µM, first compound 0.0316 µM
[14] = second compound 0.316 µM, first compound 0.1 µM
[15] = second compound 0.316 µM, first compound 0.316 µM
[16] = second compound 0.316 µM, first compound 1 µM
[17] = second compound 0.316 µM, first compound 3.16 µM
[18] = second compound 0.316 µM, first compound 10 µM
[19] = second compound 1 µM, first compound 0.0316 µM
[20] = second compound 1 µM, first compound 0.1 µM
[21] = second compound 1 µM, first compound 0.316 µM
[22] = second compound 1 µM, first compound 1 µM
[23] = second compound 1 µM, first compound 3.16 µM
[24] = second compound 1 µM, first compound 10 µM
[25] = second compound 3.16 µM, first compound 0.0316 µM
[26] = second compound 3.16 µM, first compound 0.1 µM
[27] = second compound 3.16 µM, first compound 0.316 µM
[28] = second compound 3.16 µM, first compound 1 µM
[29] = second compound 3.16 µM, first compound 3.16 µM
[30] = second compound 3.16 µM, first compound 10 µM
[31] = second compound 10 µM, first compound 0.0316 µM
[32] = second compound 10 µM, first compound 0.1 µM
[33] = second compound 10 µM, first compound 0.316 µM
[34] = second compound 10 µM, first compound 1 µM
[35] = second compound 10 µM, first compound 3.16 µM
[36] = second compound 10 µM, first compound 10 µM
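For viability, T/C in this document: drug exposure lasted seven days before viability readout; 100% = DMSO vehicle control wells.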

SMILES: O=c1[nH]cc(F)c(=O)[nH]1 + CN1CCN(c2cc(C(=O)Nc3cc4cc(-c5cnn(C)c5)ccc4cn3)ccn2)CC1
- IC50 (second compound 0.0316 µM): 1470 nM
- IC50 (second compound 0.1 µM): 1080 nM
- IC50 (second compound 0.316 µM): < 31.6 nM
- IC50 (second compound 1 µM): < 31.6 nM
- IC50 (second compound 3.16 µM): < 31.6 nM
- IC50 (second compound 10 µM): < 31.6 nM
- viability, T/C [1]: 114%
- viability, T/C [2]: 121%
- viability, T/C [3]: 83%
- viability, T/C [4]: 63.3%
- viability, T/C [5]: 30.7%
- viability, T/C [6]: 21.9%
- viability, T/C [7]: 114%
- viability, T/C [8]: 97.7%
- viability, T/C [9]: 96.3%
- viability, T/C [10]: 49.1%
- viability, T/C [11]: 33.7%
- viability, T/C [12]: 21.9%
- viability, T/C [13]: 40.7%
- viability, T/C [14]: 40.6%
- viability, T/C [15]: 34.1%
- viability, T/C [16]: 29.9%
- viability, T/C [17]: 23.9%
- viability, T/C [18]: 20.7%
- viability, T/C [19]: 0.35%
- viability, T/C [20]: 0.26%
- viability, T/C [21]: 0.78%
- viability, T/C [22]: 0.34%
- viability, T/C [23]: 0.27%
- viability, T/C [24]: 1.43%
- viability, T/C [25]: 0.06%
- viability, T/C [26]: 1.49%
- viability, T/C [27]: 0.1%
- viability, T/C [28]: 0.07%
- viability, T/C [29]: 0.55%
- viability, T/C [30]: 0.1%
- viability, T/C [31]: 0.06%
- viability, T/C [32]: 0.27%
- viability, T/C [33]: 3.05%
- viability, T/C [34]: 0.13%
- viability, T/C [35]: 1.38%
- viability, T/C [36]: 1.3%

SMILES: CCCS(=O)(=O)Nc1ccc(F)c(C(=O)c2c[nH]c3ncc(-c4ccc(Cl)cc4)cc23)c1F + CN1CCN(c2cc(C(=O)Nc3cc4cc(-c5cnn(C)c5)ccc4cn3)ccn2)CC1
- IC50 (second compound 0.0316 µM): 7050 nM
- IC50 (second compound 0.1 µM): 7250 nM
- IC50 (second compound 0.316 µM): < 31.6 nM
- IC50 (second compound 1 µM): < 31.6 nM
- IC50 (second compound 3.16 µM): < 31.6 nM
- IC50 (second compound 10 µM): < 31.6 nM
- viability, T/C [1]: 115%
- viability, T/C [2]: 104%
- viability, T/C [3]: 116%
- viability, T/C [4]: 110%
- viability, T/C [5]: 126%
- viability, T/C [6]: 21.8%
- viability, T/C [7]: 110%
- viability, T/C [8]: 118%
- viability, T/C [9]: 105%
- viability, T/C [10]: 98.7%
- viability, T/C [11]: 104%
- viability, T/C [12]: 28.9%
- viability, T/C [13]: 37.6%
- viability, T/C [14]: 57.9%
- viability, T/C [15]: 55.4%
- viability, T/C [16]: 46.8%
- viability, T/C [17]: 44.1%
- viability, T/C [18]: 7.7%
- viability, T/C [19]: 0.47%
- viability, T/C [20]: 0.46%
- viability, T/C [21]: 0.3%
- viability, T/C [22]: 0.39%
- viability, T/C [23]: 0.22%
- viability, T/C [24]: 0.86%
- viability, T/C [25]: 0.11%
- viability, T/C [26]: 0.67%
- viability, T/C [27]: 0.13%
- viability, T/C [28]: 0.13%
- viability, T/C [29]: 0.14%
- viability, T/C [30]: 0.52%
- viability, T/C [31]: 0.11%
- viability, T/C [32]: 0.13%
- viability, T/C [33]: 0.14%
- viability, T/C [34]: 0.16%
- viability, T/C [35]: 0.15%
- viability, T/C [36]: 0.25%
